# Values quoted from earlier work, collected in patent US11523999B2, “Compositions comprising a fatty aged oil mixture and a free fatty acid, and methods and uses thereof” (Pronova Biopharma Norge AS, priority 2009, dated 2022).
# “And” between values parts separate entries of the source, which are not always exact repeats. Identical values can stand only once.
# Conditions: Other surfactants, Table 7
row,HBL Value,Molecule
1,3.4,Propylene glycol monostearate
2,3.3 and 3.8,CCCCCCCCCCCCCCCCCC(=O)OCC(O)CO (stereo not drawn) [Glyceryl monostearate]
3,1.5,CCCCCCCCCCCCCCCCCC(=O)OCCOC(=O)CCCCCCCCCCCCCCCCC [Ethylene glycol distearate]
4,6.1,CCCCCCCCCCCC(=O)OCCOCCO [Diethylene glycol monolaurate]
5,40,CCCCCCCCCCCCOS(=O)(=O)[O-].[Na+] [Sodium lauryl sulphate]

row,Molecule,HBL Value
1,CCCCCCCCCCCCCCCC[N+](C)(C)C.[Br-] [Cetrimonium bromide],23.3

# Same assay, conditions: Span surfactants, Table 3
row,HLB Value,Molecule
1,4.7,sorbitan monostearate [Span ® 60]
2,4.3,sorbitan monooleate [Span ® 80]
3,6.7,sorbitan monopalmitate [Span ® 40]
